Data: patent US20040002526A1, “Phospholipase D inhibitors and uses thereof” (Cell Therapeutics, Inc., priority 2002, published 2004)

These molecules were tested against T1, PLD (phospholipase D) (assay: In vitro assay of PLD activity ([3H]-choline release from labelled PC)). Conditions: Table 1, monocyclic thiazolidinones of Formula I; PLD isoform not stated.
T1 construct: fused on or other part: N-terminal polyhistidine tag (pFastBac HTc) on either enzyme
Type: biochemical, human
Procedure: Recombinant PLD1 and PLD2—Human PLD1 and PLD2 were isolated from Sf9 insect cells that had been infected with recombinant baculovirus vector, pFastBac™HTc vector (Life Technologies, Gaithersburg, Md.), containing PLD1 or PLD2 cDNAs.
PLD1 activity was assayed by measuring the generation of [^3H]-choline from [choline-methyl^3H](16:0, 16:0)PC.
The assay procedure for PLD2 was similar to that for PLD1, with the exception that arf1, PKC-α, and GTPγS were omitted from the reaction mixture. After addition of enzymes, the reactions were incubated for 1 hour at room temperature. Twenty microliters of 12% trichloroacetic acid (TCA) then were added to each sample, to stop the reaction and to precipitate the unreacted [choline-methyl^3H](16:0, 16:0)PC. Thereafter, the samples were passed through 0.65 μm Millipore 96 well filter plates to removed the excess [choline-methyl^3H](16:0, 16:0)PC. For each sample the filtrate (50 μl), which contained the [^3H]-choline released by PLD cleavage of PC, was analyzed using a TopCount™ Liquid Scintillation Counter, a product of Packard (Meriden, Conn.).

IC50 | SMILES
less active | COC(=O)c1ccc(-c2ccc(/C=C3\SC(=O)NC3=O)o2)cc1 [Compound 31, 4-[5-(2,4-dioxo-thiazolidin-5-ylidenemethyl)-furan-2-yl]-benzoic acid methyl ester]
less active | COC(=O)c1ccc(-c2ccc(/C=C3\SC(=O)N(CC4CC4)C3=O)o2)cc1 [Compound 33, 4-[5-(3-cyclopropylmethyl-2,4-dioxo-thiazolidin-5-ylidenemethyl)-furan-2-yl]-benzoic acid methyl ester]
less active | COC(=O)c1ccc(-c2ccc(/C=C3\SC(=S)N(Cc4cc(OC)c(OC)c(OC)c4)C3=O)s2)cc1 [Compound 36, 4-{5-[4-oxo-2-thioxo-3-(3,4,5-trimethoxy-benzyl)-thiazolidin-5-ylidenemethyl]-thiophen-2-yl}-benzoic acid methyl ester]

Same assay, conditions: Table 1, monocyclic thiazolidinones of Formula I; PLD isoform not stated; read-out: IC50

IC50 [nM] | SMILES
1600 | O=C(O)CCCN1C(=O)/C(=C/c2ccc(-c3ccc(O)c(O)c3)o2)SC1=S [Compound 22, 4-{5-[5-(3,4-dihydroxy-phenyl)-furan-2-ylidenemethyl]-4-oxo-2-thioxo-thiazolidin-3-yl}-butyric acid]
9000 | O=C(O)c1ccc(N2C(=O)/C(=C/C=C/c3ccccc3)SC2=S)cc1 [Compound 23, 4-[4-oxo-5-(3-phenyl-allylidene)-2-thioxo-thiazolidin-3-yl]-benzoic acid]
< 400 | O=C(O)c1cccc(-c2ccc(/C=C3\SC(=S)N(C4CCCCC4)C3=O)o2)c1 [Compound 24, 3-[5-(3-Cyclohexyl-4-oxo-2-thioxo-thiazolidin-5-ylidenemethyl)-furan-2-yl]-benzoic acid]
3000 | COC(=O)c1ccc(-c2ccc(/C=C3\SC(=S)N(Cc4cc(OC)c(OC)c(OC)c4)C3=O)o2)cc1 [Compound 26, 4-{5-[4-oxo-2-thioxo-3-(3,4,5-trimethoxy-benzyl)-thiazolidin-5-ylidenemethyl]-furan-2-yl}-benzoic acid methyl ester]
3000 | COc1cc(CN2C(=O)/C(=C/c3ccc(-c4ccc(C(=O)O)cc4)o3)SC2=S)cc(OC)c1OC [Compound 27, 4-{5-[4-oxo-2-thioxo-3-(3,4,5-trimethoxy-benzyl)-thiazolidin-5-ylidenemethyl]-furan-2-yl}-benzoic acid]
1500 | COC(=O)c1ccc(-c2ccc(/C=C3\SC(=S)N(CCCN4CCOCC4)C3=O)o2)cc1 [Compound 28, 4-{5-[3-(3-morpholin-4-yl-propyl)-4-oxo-2-thioxo-thiazolidin-5-ylidenemethyl]-furan-2-yl}-benzoic acid methyl ester]
4000 | O=C(O)c1ccc(-c2ccc(/C=C3\SC(=S)N(c4ccccc4)C3=O)o2)cc1 [Compound 29, 4-[5-(4-oxo-3-phenyl-2-thioxo-thiazolidin-5-ylidenemethyl)-furan-2-yl]-benzoic acid]
16000 | COC(=O)c1ccc(-c2ccc(/C=C3\SC(=S)N(Cc4ccccc4)C3=O)o2)cc1 [Compound 30, 4-[5-(3-benzyl-4-oxo-2-thioxo-thiazolidin-5-ylidenemethyl)-furan-2-yl]-benzoic acid methyl ester]
1500 | O=C(O)c1ccc(-c2ccc(/C=C3\SC(=S)N(Cc4ccccc4C(F)(F)F)C3=O)o2)cc1 [Compound 34, 4-{5-[4-oxo-2-thioxo-3-(2-trifluoromethyl-benzyl)-thiazolidin-5-ylidenemethyl]-furan-2-yl}-benzoic acid]
2000 | Cc1ccc(CN2C(=O)/C(=C/c3ccc(-c4ccc(C(=O)O)cc4)o3)SC2=S)cc1 [Compound 35, 4-{5-[3-(4-methyl-benzyl)-4-oxo-2-thioxo-thiazolidin-5-ylidenemethyl]-furan-2-yl}-benzoic acid]
5000 | O=C(O)c1ccc(-c2ccc(/C=C3\SC(=S)N(Cc4cccs4)C3=O)s2)cc1 [Compound 37, 4-[5-(4-oxo-3-thiophen-2-ylmethyl-2-thioxo-thiazolidin-5-ylidenemethyl)-thiophen-2-yl]-benzoic acid]

Second part, the molecule before the results:

SMILES | IC50 [nM]
O=C(O)CN1C(=O)/C(=C\c2ccc(-c3ccccc3)o2)SC1=S [Compound 1, [4-oxo-5-(5-phenyl-furan-2-ylmethylene)-2-thioxo-thiazolidin-3-yl]-acetic acid] | 4000
O=C(O)CN1C(=O)/C(=C\c2ccc(-c3cccc(Cl)c3)o2)SC1=S [Compound 3, {5-[5-(3-chloro-phenyl)-furan-2-ylmethylene]-4-oxo-2-thioxo-thiazolidin-3-yl}-acetic acid] | 2000
O=C(O)CCN1C(=O)/C(=C/c2ccc(-c3ccccc3Cl)o2)SC1=S [Compound 4, 3-{5-[5-(2-chloro-phenyl)-furan-2-ylmethylene]-4-oxo-2-thioxo-thiazolidin-3-yl}-propionic acid] | 800
O=C(O)CN1C(=O)/C(=C\c2ccc(-c3ccccc3Cl)o2)SC1=S [Compound 5, {5-[5-(2-chloro-phenyl)-furan-2-ylmethylene]-4-oxo-2-thioxo-thiazolidin-3-yl}-acetic acid] | 1800
O=C(O)c1cccc(-c2ccc(/C=C3/SC(=S)N(c4cccc(Cl)c4)C3=O)o2)c1 [Compound 6, 3-{5-[3-(3-chloro-phenyl)-4-oxo-2-thioxo-thiazolidin-5-ylidenemethyl]-furan-2-yl}-benzoic acid] | 400
COc1ccc(N2C(=O)/C(=C\c3ccc(-c4cccc(C(=O)O)c4)o3)SC2=S)cc1 [Compound 7, 3-{5-[3-(4-methoxy-phenyl)-4-oxo-2-thioxo-thiazolidin-5-ylidenemethyl]-furan-2-yl}-benzoic acid] | 1300
O=C(O)c1ccc(-c2ccc(/C=C3\SC(=S)N(c4cccc(C(F)(F)F)c4)C3=O)o2)cc1 [Compound 8, 4-{5-[4-oxo-2-thioxo-3-(3-trifluoromethyl-phenyl)-thiazolidin-5-ylidenemethyl]-furan-2-yl}-benzoic acid] | 1400
CCN1C(=O)/C(=C\c2ccc(-c3cccc(C(=O)O)c3)o2)SC1=S [Compound 9, 3-[5-(3-ethyl-4-oxo-2-thioxo-thiazolidin-5-ylidenemethyl)-furan-2-yl]-benzoic acid] | 600
Cc1cccc(N2C(=O)/C(=C/c3ccc(-c4ccc(C(=O)O)cc4)o3)SC2=S)c1 [Compound 10, 4-[5-(4-oxo-2-thioxo-3-m-tolyl-thiazolidin-5-ylidenemethyl)-furan-2-yl]-benzoic acid] | 600
Cc1cccc(N2C(=O)/C(=C/c3ccc(-c4cccc(C(=O)O)c4)o3)SC2=S)c1 [Compound 11, 3-[5-(4-oxo-2-thioxo-3-m-tolyl-thiazolidin-5-ylidenemethyl)-furan-2-yl]-benzoic acid] | < 400
COc1ccc(N2C(=O)/C(=C\c3ccc(-c4ccc(C(=O)O)cc4)o3)SC2=S)cc1 [Compound 12, 4-{5[3-(4-methoxy-phenyl)-4-oxo-2-thioxo-thiazolidin-5-ylidenemethyl]-furan-2-yl}-benzoic acid] | < 400
O=C(O)c1ccc(-c2ccc(/C=C3\SC(=S)N(c4cccc(F)c4)C3=O)o2)cc1 [Compound 13, 4-{5-[3-(3-fluoro-phenyl)-4-oxo-2-thioxo-thiazolidin-5-ylidenemethyl]-furan-2-yl}-benzoic acid] | 1700
O=C(O)c1ccc(-c2ccc(/C=C3\SC(=S)N(Cc4ccccc4)C3=O)o2)cc1 [Compound 14, 4-[5-(3-benzyl-4-oxo-2-thioxo-thiazolidin-5-ylidenemethyl)-furan-2-yl]-benzoic acid] | < 400
Cc1ccc(N2C(=O)/C(=C/c3ccc(-c4ccc(C(=O)O)cc4)o3)SC2=S)c(C)c1 [Compound 15, 4-{5-[3-(2,4-dimethyl-phenyl)-4-oxo-2-thioxo-thiazolidin-5-ylidenemethyl]-furan-2-yl}-benzoic acid] | < 400
O=C(O)c1cccc(-c2ccc(/C=C3\SC(=S)N(Cc4ccccc4)C3=O)o2)c1 [Compound 16, 3-[5-(3-benzyl-4-oxo-2-thioxo-thiazolidin-5-ylidenemethyl)-furan-2-yl]-benzoic acid] | < 900
O=C(O)c1ccc(-c2ccc(/C=C3\SC(=S)N(C4CCCCC4)C3=O)o2)cc1 [Compound 17, 4-[5-(3-cyclohexyl-4-oxo-2-thioxo-thiazolidin-5-ylidenemethyl)-furan-2-yl]-benzoic acid] | 500
O=C(O)c1cccc(-c2ccc(/C=C3\SC(=S)N(c4cccc(F)c4)C3=O)o2)c1 [Compound 18, 3-{5-[3-(3-fluoro-phenyl)-4-oxo-2-thioxo-thiazolidin-5-ylidenemethyl]-furan-2-yl}-benzoic acid] | < 400
Cc1ccc(N2C(=O)/C(=C/c3ccc(-c4cccc(C(=O)O)c4)o3)SC2=S)c(C)c1 [Compound 19, 3-{5-[3-(2,4-dimethyl-phenyl)-4-oxo-2-thioxo-thiazolidin-5-ylidenemethyl]-furan-2-yl}-benzoic acid] | < 400
C=CCN1C(=O)/C(=C\c2ccc(-c3cccc(C(=O)O)c3)o2)SC1=S [Compound 20, 3-[5-(3-allyl-4-oxo-2-thioxo-thiazolidin-5-ylidenemethyl)-furan-2-yl]-benzoic acid] | 500
O=C(O)CCCN1C(=O)/C(=C/c2ccc(-c3ccc(Cl)c(Cl)c3)o2)SC1=S [Compound 21, 4-{5-[5-(3,4-dichloro-phenyl)-furan-2-ylidenemethyl]-4-oxo-2-thioxo-thiazolidin-3-yl}-butyric acid] | 400
